Results as given in patent publication US9274101B2 (BIOLOG, Inc., priority 2001, dated 2016).
Where two headings read alike, the source gives them in different places. Where a SMILES comes first, the peptide text is derived from it. [ ]: non-standard residue; d: D form.

How the values were obtained:
[1] = test system: HL-60 cells; assay: HL-60 responses in PM1a, PM6, PM7 and PM8 plates; type: cell-based, human
Method: In this Example, methods for testing unattached cells for their ability to use various carbon sources including di and tri-peptides are described.
After washing, HL-60 cells were resuspended in DME-R. An aliquot of the cell suspension was counted by trypan blue exclusion and the cell density was adjusted to 1×10^6/mL. Fifty μL of DME-R were added to each well of the appropriate number of half area, 96-well plates. The cells were plated at a volume of 50 μL/well, giving a final cell density of 5×10^4/well. PM1a, MP6, PM7, and PM8 MICROPLATE testing plates were inoculated (these MICROPLATE testing plates are available from Biolog under license). For each plate containing chemicals and cells, a second, control plate containing only chemicals was prepared. All wells contained a total volume of 100 μL. Plates were incubated at 5% CO2, 90-100% humidity, and 37° C. for 1 hour prior to addition of the MTS/MPMS colorometric reagent (5 μL/well). The color formed in each well after an additional 24 hour incubation period, was measured on a plate reader at 490 nm with a reference wavelength of 650 nm. OD values from the control plate were subtracted from the OD values obtained with cells prior to normalizing the data to % negative control (cells without added energy source).

[2] = test system: Salmonella typhimurium auxotrophs hisF645 and pyrCΔ73; type: cell-based
[3] = test system: ten strains of E. coli; type: cell-based, Escherichia coli; note: key: +: indicates that the organism tested was capable of utilizing the carbon source listed; −: indicates that the organism tested was not capable of utilizing the carbon source listed; indicates weak positive reactions
[4] = test system: E. coli MG1655; type: cell-based, Escherichia coli
[5] = test system: E. coli MG1655; type: cell-based, Escherichia coli; remark: listed apart in the source
[6] = PM6, PM7, PM8, positive = greater than 130% of the negative control

SMILES	response of HL-60 cells to peptides [1, 6]	other results
CC(C)C[C@H](NC(=O)CNC(=O)CN)C(=O)O		response of HL-60 cells to peptides [1]: positive response
Nc1ccn([C@H]2C[C@H](O)[C@@H](CO)O2)c(=O)n1 [2-deoxycytidine]		growth stimulation (well color) [2]: turned purple
O=c1ccn([C@H]2C[C@H](O)[C@@H](CO)O2)c(=O)[nH]1 [2-deoxyuridine]		growth stimulation (well color) [2]: turned purple
Nc1ncnc2c1ncn2[C@H]1C[C@H](O)[C@@H](CO)O1 [2′-deoxy-adenosine]		carbon source utilization [3]: +; growth stimulation (well color) [2]: turned weakly purple
Nc1nc2c(ncn2[C@H]2C[C@H](O)[C@@H](CO)O2)c(=O)[nH]1 [2′deoxyguanosine]		growth stimulation (well color) [2]: turned weakly purple
C[C@@H](N)C(=O)N[C@H](C)C(=O)O [D-ala-D-ala] (H-[dA]-[dA]-OH)	positive response	
C[C@H](N)C(=O)N[C@@H](CCC(N)=O)C(=O)O [ala-gln] (H-Ala-Gln-OH)	positive response	suitability as nitrogen source (growth, purple color) [4]: positive
N[C@@H](CS)C(=O)NCC(=O)O [cys-gly]	positive response	suitability as sulfur source (growth, purple color) [5]: positive
Nc1ccn([C@@H]2O[C@H](CO)[C@@H](O)[C@H]2O)c(=O)n1 [cytidine]		growth stimulation (well color) [2]: turned purple
Nc1cc[nH]c(=O)n1 [cytosine]		growth stimulation (well color) [2]: turned purple; suitability as nitrogen source (growth, purple color) [4]: not suitable
NC(=O)CC[C@H](N)C(=O)N[C@@H](CCC(=O)O)C(=O)O [gln-glu] (H-Gln-Glu-OH)	positive response	
NCC(=O)N[C@H](CO)C(=O)O [gly-D-ser] (H-Gly-[dS]-OH)	positive response	
CC(C)[C@@H](NC(=O)CN)C(=O)O [gly-D-val] (H-Gly-[dV]-OH)	positive response	
CC[C@H](C)[C@H](NC(=O)CNC(=O)CN)C(=O)O [gly-gly-ile] (H-Gly-Gly-Ile-OH)	positive response	
NCC(=O)NCC(=O)O [gly-gly] (H-Gly-Gly-OH)	positive response	
NCC(=O)N[C@@H](Cc1cnc[nH]1)C(=O)O [gly-his] (H-Gly-His-OH)	positive response	
CC(C)[C@H](NC(=O)CN)C(=O)O [gly-val] (H-Gly-Val-OH)	positive response	
Nc1nc2nc[nH]c2c(=O)[nH]1 [guanine]		growth stimulation (well color) [2]: turned weakly purple

SMILES	response of HL-60 cells to peptides [1, 6]	other results
N[C@@H](Cc1cnc[nH]1)C(=O)N[C@@H](CC(=O)O)C(=O)O [his-asp] (H-His-Asp-OH)	positive response	
N[C@@H](Cc1cnc[nH]1)C(=O)N[C@@H](Cc1cnc[nH]1)C(=O)O [his-his]	positive response	
CC[C@H](C)[C@H](N)C(=O)N[C@@H](CCC(N)=O)C(=O)O [ile-gln] (H-Ile-Gln-OH)	positive response	
N[C@@H](Cc1ccccc1)C(=O)N[C@@H](CC(=O)O)C(=O)O [phe-asp] (H-Phe-Asp-OH)	positive response	
C[C@H](NC(=O)[C@@H]1CCCN1)C(=O)O [pro-ala] (H-Pro-Ala-OH)	positive response	
O=C(O)[C@H](Cc1c[nH]c2ccccc12)NC(=O)[C@@H]1CCCN1 [pro-trp] (H-Pro-Trp-OH)	positive response	
CC(C)CC(NC(=O)C(N)CO)C(=O)O (stereo not drawn) [ser-leu] (H-Ser-Leu-OH; configuration not given here)	positive response	
CSCC[C@H](NC(=O)[C@@H](N)CO)C(=O)O [ser-met] (H-Ser-Met-OH)	positive response	
N[C@@H](CO)C(=O)N[C@@H](Cc1ccccc1)C(=O)O [ser-phe]		response of HL-60 cells to peptides [1]: positive response
CSCC[C@H](NC(=O)[C@@H](N)[C@@H](C)O)C(=O)O [thr-met] (H-Thr-Met-OH)	positive response	
C[C@@H](O)[C@H](N)C(=O)N1CCC[C@H]1C(=O)O [thr-pro] (H-Thr-Pro-OH)	positive response	
C[C@@H](O)[C@H](N)C(=O)N[C@@H](CO)C(=O)O [thr-ser] (H-Thr-Ser-OH)	positive response	
C[C@H](NC(=O)[C@@H](N)Cc1ccc(O)cc1)C(=O)O [tyr-ala]	positive response	
N[C@@H](Cc1ccc(O)cc1)C(=O)N[C@@H](Cc1ccccc1)C(=O)O [tyr-phe] (H-Tyr-Phe-OH)	positive response	
CC(C)[C@H](NC(=O)[C@@H](N)Cc1ccc(O)cc1)C(=O)O [tyr-val] (H-Tyr-Val-OH)	positive response	
O=c1cc[nH]c(=O)[nH]1 [uracil]		growth stimulation (well color) [2]: turned purple; suitability as nitrogen source (growth, purple color) [4]: not suitable
CC(C)[C@H](N)C(=O)N[C@@H](CCC(N)=O)C(=O)O [val-gln] (H-Val-Gln-OH)	positive response	
CC(C)[C@H](N)C(=O)N[C@@H](Cc1ccc(O)cc1)C(=O)N[C@H](C(=O)O)C(C)C [val-tyr-val] (H-Val-Tyr-Val-OH)	positive response	
